According to article PMC10723784, “Investigation of the cytotoxicity induced by cannabinoids on human ovarian carcinoma cells” (Pharmacology Research & Perspectives, 2023):
“And” between values parts separate entries of the source, which are not always exact repeats. Identical values can stand only once. Like-named read-outs stand apart in the source and are kept apart here.

Assays:
[1] = system: A2780 cells; experiment: MTT cytotoxicity assay, A2780 cells; conditions: for Combination index (CI), carboplatin + CBD: A2780, 100 nM CBD
Protocol: (§1) In separate experiments, cells were seeded in 96‐well plates and after 24 h elapsed they were exposed to different concentrations of drugs or vehicle. Cells were then left in the incubator for a further 24 or 48 h. Then the media was replaced with fresh media containing no drug and the cells were left in the incubator. MTT assay was performed after 96 h elapsed from the time when cells were exposed to drugs or vehicle.
(§2) The cells were then left in the incubator and MTT assay was performed 96 h following the initial exposure to the drugs.
(§3) The selective index (SI) is the ratio of mean IC50 values for non‐cancer cells to cancer cells. […] While the isobologram can be considered predominantly as a graphical depiction of drug interactions, the combination index (CI) is a quantitative representation. It relates the actual drug concentration in the combination to the concentration of the single drug that achieves the same effect. […] Here, CI analysis was used to investigate combinations at 50% cytotoxicity. To this end the IC50 of the viability dose–response curves were determined by non‐linear regression curve fit analysis (GraphPad Prism, v5.00).
(§4) CIA+B is the combination index of A and B; C A the concentration of A applied in combination; C B the concentration of B applied in combination; IC50 A the IC50 of drug A when it was applied individually to the cells; IC50 B = IC50 of drug B when it was applied individually to the cells.

[2] = system: A2780/CP70 cells; experiment: MTT cytotoxicity assay, A2780/CP70 cells; conditions: for Combination index (CI), carboplatin + CBD: A2780/CP70, 100 nM CBD; for Combination index (CI), carboplatin + CBG: A2780/CP70, 100 nM CBG
Protocol: as §1, §2, §3, §4

[3] = MTT cytotoxicity assay, non-cancer PNT2 cells; conditions: human, PNT2 normal prostate epithelial cells
Protocol: (§9) Human ovarian carcinoma cells, A2780 (sensitive to chemotherapeutics), A2780/CP70 (resistant to chemotherapeutics), and non‐cancerous cells including PNT2 (normal prostate epithelial cell line), and/or ARPE19 (human retinal pigment cell line) were maintained according to the ATCC and ECACC guidelines.
(§10) In vitro chemosensitivity assays were performed using the MTT assay as previously described.[32], [33] Briefly, at 70% confluency, cells were seeded in 96‐well plates at a density of 2000 cells/well. […] After the allocated contact time had elapsed, the media was removed and 0.5% (w/v) MTT solution diluted in complete media (200 μL) was added to each well. Following a 4 h incubation, the supernatants were removed, and the formazan crystals were dissolved in dimethylsulfoxide (150 μL). The absorbance was read at 540 nm on a Tecan Infinite 50 plate UV reader.

[4] = system: A2780 cells; experiment: Mitochondrial membrane potential assay (JC-1), A2780 cells; assay type: cell-based, human; conditions: A2780, 10-50 μM, 24 h, dose-dependent
Protocol: (§5) The mitochondrial membrane potential assay was performed to detect the loss in mitochondrial potential (de‐polarization), which is a vital step in apoptosis.[36] Cells were seeded in T25 flasks at 4 × 10^5 cells per flask and were incubated for 48 h or until they reached confluency. After the incubation time elapsed, drugs at concentrations of 10, 30, and 50 μM or vehicle were added to the flasks and further incubated for 24 h. After 24 h elapsed, the cells were harvested and suspended in PBS. Cell viability and number were determined by the cell viability assay using via1 cassettes on NC‐3000 system. The samples were diluted in PBS to 1 × 10^6 cells/mL and 2.5 μg/mL of JC‐1 dye was added to each sample. JC‐1 is a […] dye, which stains as fluorescent red as it aggregates in the mitochondrial matrix. In the absence of mitochondrial membrane potential, JC‐1 localizes in the cytosol in its fluorescent green form. Following the addition of JC‐1, the cells were incubated for 10–30 min at 37°C. […] 12.5 μL of samples were loaded on to an A‐8 slide and were analyzed using the NC‐3000 image cytometry. The degree of apoptosis (in proportional to the loss in mitochondrial membrane potential) was measured using a scatter plot of JC‐1 red fluorescence versus JC‐1 green fluorescence.

[5] = system: A2780/CP70 cells; experiment: Cell cycle analysis (DAPI, NC-3000), A2780/CP70 cells; assay type: cell-based, human; conditions: 48 h
Protocol: (§6) Cells were seeded in T25 flasks at 4 × 10^5 cells per flask and were incubated for 48 h or until they reached confluency. […] After the incubation time elapsed cells were suspended in PBS with a density closer to 1 × 10^6cells/mL. The cells were washed twice with 1× PBS before the addition of 250 μL of lysis buffer (solution 10) supplemented with 10 μg/mL DAPI (solution 12) was added to the samples and incubated for 5 min at 37°C. After incubation, 250 μL of stabilization buffer (solution 11) was added. 12.5 μL of samples were loaded on to an A‐8 slide and were analyzed using the NC‐3000 system.

[6] = system: caspase 3/7 activity in A2780 cells; experiment: Caspase 3/7 assay, A2780 cells; assay type: cell-based, human; conditions: A2780, 24 h contact time, dose-dependent, significant above 10 μM
Protocol: (§7) Sensolyte homogenous caspase 3/7 assay kit was used to determine the caspase activity in ovarian cancer cells when treated with CBG. Cells were seeded in 96‐well plate at 6 × 10^3 cells per well and were incubated for 24 h. CBG was added in concentrations of 10, 20, 30, and 50 μM and incubated for a further 24 h. After the incubation time elapsed, the media was removed and replaced with 150 μL/well of fresh complete media. Caspase 3/7 solution was prepared by diluting the caspase substrate 1:100 with DTT‐containing assay buffer. 50 μL/well caspase substrate was added to the plates, and the cells were incubated for 30 min. Ac‐DEVD‐AMC serves as the fluorogenic indicator for assaying caspase‐3/7 activity. Ac‐DEVD‐AMC generates the AMC fluorophore in the presence of caspase 3/7, which produces bright blue fluorescence. The fluorescence was measured by the FLOUstar OPTIMA plate reader with the excitation at 354 nm and emission at 442 nm.
(§8) The level of caspase 3/7 was also determined using Apotox‐Glo Triple assay. Cells were seeded and drugs were added as described above in Section 2.6.1. After 24 h incubation, caspase 3/7 reagent was prepared by mixing caspase buffer and substrate and 100 μL of reagent was added to each well for 30 min incubation at room temperature. […] The luminescence was measured by the FLOUstar OPTIMA plate reader.

[7] = system: caspase 3/7 activity in A2780/CP70 cells; experiment: Caspase 3/7 assay, A2780/CP70 cells; assay type: cell-based, human; conditions: A2780/CP70, 24 h contact time, dose-dependent, significant above 10 μM
Protocol: as §7, §8

[8] = MTT cytotoxicity assay, non-cancer ARPE19 cells; conditions: human, ARPE19 non-cancer retinal pigment cells
Protocol: as §9, §10

[9] = system: A2780/CP70 cells; experiment: Mitochondrial membrane potential assay (JC-1), A2780/CP70 cells; assay type: cell-based, human; conditions: A2780/CP70, 10-50 μM, 24 h, dose-dependent
Protocol: as §5

[10] = system: A2780 cells; experiment: Cell cycle analysis (DAPI, NC-3000), A2780 cells; assay type: cell-based, human; conditions: 48 h
Protocol: as §6

[11] = high doses such as 1500 mg/day; cited from earlier work

For `COc1ccc(C(=O)c2c(C)n(CCN3CCOCC3)c3cc(I)ccc23)cc1` [AM630], the “Concentrations at which the antagonist alone induced cytotoxicity” value ([1]; A2780, antagonist alone) was “higher than 1 μM” and the “Concentrations at which the antagonist alone induced cytotoxicity” value ([2]; A2780/CP70, antagonist alone) was “higher than 1 μM”.
In the case of `C=C(C)[C@@H]1CCC(C)=C[C@H]1c1c(O)cc(CCCCC)cc1O` [CBD, cannabidiol], the IC50 at 24 h [3] is reported as 40.6 ± 2.3 µM, the IC50 at 48 h [3] is reported as 17.7 ± 2.4 µM and the IC50 at 72 h [3] is reported as 17.2 ± 0.6 µM. It also gave an IC50 at 96 h [3] of 14.4 ± 1.6 µM, an IC50 ([1]; Homo sapiens, A2780, 24 h, read-out: IC50 cytotoxicity) of 12.3 ± 0.7 µM and an IC50 ([1]; Homo sapiens, A2780, 48 h, read-out: IC50 cytotoxicity) of 6.8 ± 1.1 µM. The IC50 ([1]; Homo sapiens, A2780, 72 h, read-out: IC50 cytotoxicity) was 4.5 ± 0.1 µM, the IC50 ([1]; Homo sapiens, A2780, 96 h, read-out: IC50 cytotoxicity) was 3.5 ± 0.2 µM and the Cytotoxicity ([1]; human) was “approximately 90%”. For the same compound, the “Percentage of apoptotic cells (loss of mitochondrial membrane potential)” value [4] was “induced an increase in the percentage of apoptotic cells”, the “Cells in G0/G1 phase” value ([5]; A2780/CP70, 10 μM) was 77.4 ± 1.3% and the “Cells in G0/G1 phase” value ([5]; A2780/CP70, 30 μM) was 85.1 ± 1.1%. The “Cells in G0/G1 phase” value ([5]; A2780/CP70, 50 μM) was 64.9 ± 0.9%, the “Cells in subG1 phase” value ([5]; A2780/CP70, 50 μM) was 6 ± 0.9% and the “Caspase 3/7 activity” value [6] was “increased the caspase 3/7 activity”. The Selectivity index [2] was 1.57 and 1.28 and 1.78 and 2.02 and 2.49 and 1.52 and 2.35 and 2.48, the IC50 ([2]; Homo sapiens, A2780/CP70, 24 h, read-out: IC50 cytotoxicity) was 16.1 ± 0.6 µM and the IC50 ([2]; Homo sapiens, A2780/CP70, 48 h, read-out: IC50 cytotoxicity) was 11.2 ± 0.7 µM. The IC50 ([2]; Homo sapiens, A2780/CP70, 72 h, read-out: IC50 cytotoxicity) was 7.3 ± 0.4 µM, the IC50 ([2]; Homo sapiens, A2780/CP70, 96 h, read-out: IC50 cytotoxicity) was 5.8 ± 0.8 µM and the “Caspase 3/7 activity” value [7] was “increased the caspase 3/7 activity”. The IC50 at 24 h [8] was 25.3 ± 1.8 µM, the IC50 at 48 h [8] was 14.4 ± 0.9 µM and the IC50 at 72 h [8] was 13 µM. For the same compound, the IC50 at 96 h [8] was 11.7 ± 1.2 µM, the “Percentage of apoptotic cells (loss of mitochondrial membrane potential)” value [9] was “induced an increase in the percentage of apoptotic cells” and the “Cells in G0/G1 phase” value ([10]; A2780, 10 μM) was 81.4 ± 1.3%. For the same compound, the “Cells in G0/G1 phase” value ([10]; A2780, 30 μM) was 85 ± 1.5%, the “Cells in S phase” value ([10]; A2780, 30 μM) was 6 ± 1.5% and the “Cells in G0/G1 phase” value ([10]; A2780, 50 μM) was 61.6 ± 1.4%. The “Cells in subG1 phase” value ([10]; A2780, 50 μM) was 11.1 ± 1.0% and the Tolerability in humans [11] was “well tolerated”.
For `N.N.O=C([O-])C1(C(=O)[O-])CCC1.[Pt+2]` [carboplatin], the “Combination index (CI), carboplatin + CBD” value ([1]; 24 h, at 50% cytotoxicity) was 0.36, the “Combination index (CI), carboplatin + CBD” value ([1]; 48 h, at 50% cytotoxicity) was 0.17 and the “Combination index (CI), carboplatin + CBD” value ([1]; 72 h, at 50% cytotoxicity) was 0.15. For the same compound, the “Combination index (CI), carboplatin + CBD” value ([1]; 96 h, at 50% cytotoxicity) was 0.096, the “Combination index (CI), carboplatin + CBG” value ([1]; A2780, 100 nM CBG, 96 h, at 50% cytotoxicity) was 0.55 and the IC50 ([1]; read-out: IC50 cytotoxicity, recovery, A2780, 24 h exposure then drug washed out, MTT at 96 h) was 7.9 ± 0.5 µM. It also gave an IC50 ([1]; read-out: IC50 cytotoxicity, recovery, A2780, 48 h exposure then drug washed out, MTT at 96 h) of 4.7 ± 0.2 µM, an IC50 ([1]; read-out: IC50 cytotoxicity, recovery, A2780, 48 h exposure then drug washed out, MTT at 96 h, listed as Carboplatin) of 4.8 ± 0.2 µM and an IC50 ([1]; read-out: IC50 cytotoxicity, recovery, A2780, 72 h exposure then drug washed out, MTT at 96 h) of 2.6 ± 0.5 µM. The IC50 ([1]; read-out: IC50 cytotoxicity, A2780, 24 h contact time, MTT) was greater than 100 µM, the IC50 ([1]; read-out: IC50 cytotoxicity, A2780, 48 h contact time, MTT) was 17.3 ± 0.6 µM and the IC50 ([1]; read-out: IC50 cytotoxicity, A2780, 72 h contact time, MTT) was 4.3 ± 0.7 µM. For the same compound, the IC50 ([1]; read-out: IC50 cytotoxicity, A2780, 96 h contact time, MTT) was 2.57 µM and 2.5 µM and 2.6 µM, the IC50 ([1]; read-out: IC50 cytotoxicity, A2780, 96 h contact time, MTT, listed as Carboplatin) was 2.6 ± 0.3 µM and the “Combination index (CI), carboplatin + CBD” value ([2]; 24 h) was 0.85. For the same compound, the “Combination index (CI), carboplatin + CBD” value ([2]; 48 h) was 0.78, the “Combination index (CI), carboplatin + CBD” value ([2]; 72 h) was 0.8 and the “Combination index (CI), carboplatin + CBD” value ([2]; 96 h) was 0.57. The “Combination index (CI), carboplatin + CBG” value ([2]; 48 h) was 0.78, the “Combination index (CI), carboplatin + CBG” value ([2]; 72 h) was 0.71 and the “Combination index (CI), carboplatin + CBG” value ([2]; 96 h) was 0.65. For the same compound, the IC50 ([2]; read-out: IC50 cytotoxicity, recovery, A2780/CP70, 24 h exposure then drug washed out, MTT at 96 h) was 66.5 ± 3.4 µM, the IC50 ([2]; read-out: IC50 cytotoxicity, recovery, A2780/CP70, 48 h exposure then drug washed out, MTT at 96 h) was 48.7 ± 0.4 µM and the IC50 ([2]; read-out: IC50 cytotoxicity, recovery, A2780/CP70, 72 h exposure then drug washed out, MTT at 96 h) was 45.5 ± 2.6 µM. It also gave an IC50 ([2]; read-out: IC50 cytotoxicity, A2780/CP70, 24 h contact time, MTT) greater than 100 µM, an IC50 ([2]; read-out: IC50 cytotoxicity, A2780/CP70, 48 h contact time, MTT) greater than 100 µM and an IC50 ([2]; read-out: IC50 cytotoxicity, A2780/CP70, 72 h contact time, MTT) of 48 ± 1.9 µM. It also gave an IC50 ([2]; read-out: IC50 cytotoxicity, A2780/CP70, 96 h contact time, MTT) of 44.9 ± 3.5 µM.
In the case of `Cc1c(C)c2c(c(C)c1O)CC[C@@](C)(CCC[C@H](C)CCC[C@H](C)CCCC(C)C)O2` [α‐tocopherol], the “Effect on viability of the cells when used alone” value ([1]; alone up to 100 μM, preliminary experiments, cell line not named (A2780 and A2780/CP70 tested)) is reported as “did not compromise the viability of the cells”.
